Reference: ChEMBL document CHEMBL1137685, “A three-step synthesis from rebeccamycin of an efficient checkpoint kinase 1 inhibitor” (Eur J Med Chem, 2009)

What was measured:
[1] = molecular target: T1, Serine/threonine-protein kinase Chk1 (Homo sapiens, UniProt O14757); assay: Inhibition of GST-tagged human full-length CHK1 expressed in Sf9 cells
T1 sequence (O14757 whole entry): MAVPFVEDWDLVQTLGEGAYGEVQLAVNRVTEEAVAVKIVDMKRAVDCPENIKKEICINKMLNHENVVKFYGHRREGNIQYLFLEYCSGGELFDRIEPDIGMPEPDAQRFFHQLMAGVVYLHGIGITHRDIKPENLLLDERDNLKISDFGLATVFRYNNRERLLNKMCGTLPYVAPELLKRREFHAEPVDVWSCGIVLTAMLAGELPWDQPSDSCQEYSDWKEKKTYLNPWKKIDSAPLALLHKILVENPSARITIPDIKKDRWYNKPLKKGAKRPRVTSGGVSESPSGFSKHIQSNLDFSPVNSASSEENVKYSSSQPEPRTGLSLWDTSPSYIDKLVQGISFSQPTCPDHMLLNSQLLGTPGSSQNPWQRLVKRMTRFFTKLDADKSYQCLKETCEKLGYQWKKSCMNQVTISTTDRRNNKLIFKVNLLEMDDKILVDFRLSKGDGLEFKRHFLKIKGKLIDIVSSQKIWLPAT

[2] = molecular target: T2, Serine/threonine-protein kinase Chk1 (Homo sapiens) (UniProt O14757); conditions: Sf9, 0.1 uM
T2 sequence (whole entry): T1 sequence (O14757 whole entry)
Description: Inhibition of GST-tagged human full-length CHK1 expressed in Sf9 cells at 0.1 uM

[3] = molecular target: Proto-oncogene tyrosine-protein kinase Src (Homo sapiens) (UniProt P12931); assay: Inhibition of Src at 1 uM
Chain of Proto-oncogene tyrosine-protein kinase Src (Homo sapiens) (P12931 2-536 limits assumed): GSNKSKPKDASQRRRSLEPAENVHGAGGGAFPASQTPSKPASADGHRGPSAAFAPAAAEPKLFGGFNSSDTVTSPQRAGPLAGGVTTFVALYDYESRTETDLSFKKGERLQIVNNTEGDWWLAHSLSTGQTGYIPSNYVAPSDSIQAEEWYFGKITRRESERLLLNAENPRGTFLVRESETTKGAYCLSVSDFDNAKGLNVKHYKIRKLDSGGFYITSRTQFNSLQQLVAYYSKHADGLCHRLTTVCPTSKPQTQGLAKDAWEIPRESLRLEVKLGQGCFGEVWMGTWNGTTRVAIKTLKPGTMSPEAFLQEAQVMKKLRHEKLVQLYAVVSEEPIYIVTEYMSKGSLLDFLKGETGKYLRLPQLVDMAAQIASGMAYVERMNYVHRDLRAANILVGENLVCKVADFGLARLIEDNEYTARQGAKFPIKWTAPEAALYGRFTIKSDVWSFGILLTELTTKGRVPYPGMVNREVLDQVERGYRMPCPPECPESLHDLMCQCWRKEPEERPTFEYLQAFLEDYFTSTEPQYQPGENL

## CO[C@H]1[C@H](O)[C@H]2[C@@H](O[C@@H]1CN)n1c3ccccc3c3c4c(c5c6ccccc6n2c5c31)C(=O)NC4=O
[1]
  IC50: 2.8 nM
[2]
  inhibition: 90%
[3]
  inhibition: 35%
